Measured values from patent publication US12319913B2, “5-halouracil-modified microRNAs and their use in the treatment of cancer” (The Research Foundation for The State University of New York, priority 2018, dated 2025).
[5FU] = 5-fluorouracil base replacing uracil

Legend:
[1] = system: HCT116 derived colon cancer stem cells; assay type: cell-based
Protocol: (§1) For transfections, 1×10^5 cells were plated in six-well plates and transfected with 100 nM of control non-specific miRNA (Thermo Fischer), a modified microRNA, or exogenous native microRNA after 24 hours using Oligofectamine (Thermo Fischer) following the manufacturer's protocols. For reagent free transfection, cells were plated in 6 well plates at (1×10^5) cells per well. Twenty-four hours later 100 pmol miRNA (Control, miR-15a, Mimic-1) were diluted in Optimem (Thermo Fischer) and added to the plate. Media was changed after 24 hours. Media was supplemented with 10% fetal bovine serum (Thermo Fischer). Briefly, cells were cultured in growth media (DMEM/F12 supplemented with B27, 10 ng/mL bFGF, and 20 ng/mL EGF (Life Technologies) in ultra-low attachment flasks) for up to 6 days. The spheroid cells were maintained by collection through gentle centrifugation, dissociation to single cells and replating.
miR-129 mimics eliminated chemotherapy resistant colon cancer stem cells. To determine the impact of certain exemplary modified microRNAs of the present disclosure (i.e., miR-129 mimics) on 5-FU resistant colon cancer stem cells, HCT116 derived colon cancer stem cells were treated with various concentrations of Mimic-1 or 5-FU.

[2] = system: SW480 colon cancer cells; assay: WST-1 cell proliferation assay, SW480; assay type: cell-based, human; conditions: SW480, in words, vs controls
Protocol: as §1, with “The spheroid cells were maintained by collection through gentle centrifugation, dissociation to single cells and replating.” left out
Cell proliferation assay: Twenty-four hours after transfection, cells were seeded in 96-well plates at a density of 2000 cells per well. The cell proliferation assay was performed on days 1 to 5 by incubating 10 μl WST-1 (Roche Applied Science, Mannheim, Germany) in the culture medium for 1 h and reading the absorbance at 450 and 630 nm. The cell proliferation rate was calculated by subtracting the absorbance at 450 nm from the absorbance at 630 nm. […] The O.D. was calculated by subtracting the absorbance at 630 nm from that at 450 nm. […]

[3] = system: cancer cells; assay: Real-time qRT-PCR of modified miR entry into cancer cells; assay type: cell-based, human; conditions: quantitative Real-Time PCR
Protocol: Real-time qRT-PCR analysis of nucleic acid expression. The expression levels of microRNAs in cancer cells were quantified. Briefly, the primers specific to the microRNA of interest and an internal control RNU44 gene were purchased from Ambion. cDNA synthesis was performed by the High Capacity cDNA Synthesis Kit (Applied Biosystems) with miRNA-specific primers. Real-time qRT-PCR was carried out on an Applied Biosystems 7500 Real-Time PCR machine with miRNA-specific primers by TaqMan Gene Expression Assay (Applied Biosystems). Expression level of the exemplary miRs of the present disclosure was calculated by the ΔΔCT method based on the internal control RNU44, normalized to the control group and plotted as relative quantification.

[4] = system: TS, BCL2 and E2F3; assay: Western immunoblot of miR-129 targets in HCT-116 cells; assay type: cell-based, human; conditions: colon cancer HCT-116 cells
Protocol: Western immunoblot analysis: Forty-eight hours after transfection, equal amounts of protein (15 μg) extracted from cells lysed in RIPA buffer with protease inhibitor (Sigma) and were separated on 10%-12% sodium dodecyl sulfate-polyacrylamide gels using standard procedures. The primary antibodies used for the analysis were rabbit anti-YAP1 monoclonal antibody (1:10000) (Cell Signaling Technologies), anti-DLCK1 (1:500) (Abcam), anti-BCL2 (1:500) (NeoMarkers), anti-MDC1 (1:500), anti-SUZ12 (1:500), anti-pChk-1 (1:500), anti beta-actin (1:500), anti-BMI-1 (1:10000) (Cell Signaling Technologies), mouse anti-human TS antibody (1:500), anti-α-tubulin (1:50000) (Santa Cruz Biotech Inc.), anti-GAPDH (1:100000) (Santa Cruz Biotech Inc.), anti-E2F3 (1:500) (Santa Cruz Biotech Inc.), Horseradish peroxidase-conjugated antibodies against mouse or rabbit (1:5000, Santa Cruz Biotech Inc.) were used as the secondary antibodies. Protein bands were visualized with autoradiography film using SuperSignal West Pico Chemiluminescent Substrate (Thermo Fischer). Western blot density was quantified using Image J software.

[5] = system: colorectal cancer stem cell xenograft; assay: Colorectal cancer stem cell mouse xenograft model; assay type: in vivo; conditions: cells pre transfected, eight weeks after injection, n=8
Protocol: Mouse subcutaneous tumor implantation model: Two days before injection, HCT116 colorectal cancer stem cells or MDA-MB-231 breast cancer cells were plated at 5×10^5/well in a 6-well ultra low attachment plate. 20 μL of the virus or 100 pmole exemplary modified miR-129 or modified miR-15a were used to transduce or transfect cells. Forty-eight hours later, cells were collected and re-suspended at 10^6/ml in DMEM/F12 knockout media with 30% matrigel. Ten-twelve week-old NOD/SCID mice (Jackson Laboratories, Bar Harbor, […], USA) were used for tumor implantation. The mice were anesthetized by isoflurane inhalation. 100 μL of cell suspension was injected subcutaneously into both sides of the lower back area. The tumor size was measured using a caliper, and tumor volume was calculated using the formula V=length×width^2/2.
Modified miR-15a inhibits cancer development and progression in vivo. A colorectal cancer stem cell mouse xenograft model was established that included colorectal cancer cells that have been either pre transfected with modified miR-15a or negative control miRNA. Eight weeks after injection, tumors were measured and harvested.

| Substance | proliferation of HCT116 colon cancer stem cells ([1]; 25 nM, day 6) | elimination of 5-FU resistant colon cancer stem cells ([1]; 100 nM) | killing of 5-FU resistant cancer stem cells, dose dependence ([1]; increasing concentrations, FIG. 6) | inhibition of colon cancer cell proliferation [2] | entry into cancer cells [3] | target specificity to TS, BCL2 and E2F3 ([4]; Western immunoblot) | reducing the expression levels of TS, BCL2 and E2F3 ([4]; compared with unmodified (control) miR-129) | reduction in tumor size [5] |
| --- | --- | --- | --- | --- | --- | --- | --- | --- |
| CU^FU^FU^FU^FU^FGCGGU^FCU^FGGGCU^FU^FGC (CUUUUUGCGGUCUGGGCUUGC; RNA, [5FU] at 2, 3, 4, 5, 6, 11, 13, 18, 19, backbone not given here) [modified miR-129] | nearly completely blocked | over 80% | killed 5-FU resistance cancer stem cells in a dose dependent manner | inhibition of colon cancer cell proliferation | enter cancer cells | retain their target specificity | more potent than unmodified (control) miR-129 | – |
| U^FAGCAGCACAU^FAAU^FGGU^FU^FU^FGU^FG (UAGCAGCACAUAAUGGUUUGUG; RNA, [5FU] at 1, 11, 14, 17, 18, 19, 21, backbone not given here) [modified miR-15a] | – | – | – | – | – | – | – | > 25 × |
